System: MV-4-11 cells
Test: Gene expression microarray analysis (Affymetrix PrimeView) and GSEA
Assay type: cell-based, human
Parameters: RFU PODN (11730768_x_at) / Fold change /veh PODN (11730768_x_at) / RFU LINC00158 (11744669_a_at) / Fold change /veh LINC00158 (11744669_a_at) / RFU DUSP10 (11751237_a_at) / Fold change /veh DUSP10 (11751237_a_at) / RFU ID3 (11757404_x_at) / Fold change /veh ID3 (11757404_x_at) / RFU PLEKHG5 (11737974_s_at) / Fold change /veh PLEKHG5 (11737974_s_at) / RFU LRRC4B (11730491_at) / Fold change /veh LRRC4B (11730491_at) / RFU GIMAP4 (11747438_a_at) / Fold change /veh GIMAP4 (11747438_a_at) / RFU KRT8 (11758183_x_at) / Fold change /veh KRT8 (11758183_x_at) / RFU CNN1 (11734310_a_at) / Fold change /veh CNN1 (11734310_a_at) / RFU VPS37D (11726825_at) / Fold change /veh VPS37D (11726825_at) / RFU C10orf10 (11716522_x_at) / Fold change /veh C10orf10 (11716522_x_at) / RFU KIR2DL2 /// KIR2DL4 /// KIR2DL5A /// KIR2DL5B /// KIR2DS1 /// KIR2DS2 /// KIR2DS3 /// KIR2DS4 /// KIR3DL3 /// KIR3DL3 /// KIR3DS1 (11738374_at) / Fold change /veh KIR2DL2 /// KIR2DL4 /// KIR2DL5A /// KIR2DL5B /// KIR2DS1 /// KIR2DS2 /// KIR2DS3 /// KIR2DS4 /// KIR3DL3 /// KIR3DL3 /// KIR3DS1 (11738374_at) / RFU C1QL1 (11718748_at) / Fold change /veh C1QL1 (11718748_at) / RFU TMPRSS4 (11747572_a_at) / Fold change /veh TMPRSS4 (11747572_a_at) / RFU HAMP (11756126_x_at) / Fold change /veh HAMP (11756126_x_at) / RFU RNFT2 (11725882_a_at) / Fold change /veh RNFT2 (11725882_a_at) / RFU NR4A2 (11747474_a_at) / Fold change /veh NR4A2 (11747474_a_at) / RFU ABCC12 (11746883_a_at) / Fold change /veh ABCC12 (11746883_a_at) / RFU TMEM136 (11760407_x_at) / Fold change /veh TMEM136 (11760407_x_at) / RFU CLDN22 /// WWC2 (11732394_at) / Fold change /veh CLDN22 /// WWC2 (11732394_at) / RFU HLA-DPB1 (11760878_x_at) / Fold change /veh HLA-DPB1 (11760878_x_at) / RFU SPINT1 (11716480_a_at) / Fold change /veh SPINT1 (11716480_a_at) / RFU GAP43 (11754022_s_at) / Fold change /veh GAP43 (11754022_s_at) / RFU A4GNT (11735810_at) / Fold change /veh A4GNT (11735810_at) / RFU PRB3 (11715151_x_at) / Fold change /veh PRB3 (11715151_x_at) / RFU TUBB4B (11761932_at) / Fold change /veh TUBB4B (11761932_at) / RFU CAPN14 (11732068_a_at) / Fold change /veh CAPN14 (11732068_a_at) / RFU TMCC2 (11721928_a_at) / Fold change /veh TMCC2 (11721928_a_at) / RFU IRGQ (11745062_a_at) / Fold change /veh IRGQ (11745062_a_at) / RFU FAM174B (11720279_a_at) / Fold change /veh FAM174B (11720279_a_at) / RFU TMPRSS4 (11748680_a_at) / Fold change /veh TMPRSS4 (11748680_a_at) / RFU FAM212B (11763350_a_at) / Fold change /veh FAM212B (11763350_a_at) / RFU PLEKHG5 (11743358_a_at) / Fold change /veh PLEKHG5 (11743358_a_at) / RFU ZSCAN30 (11745921_a_at) / Fold change /veh ZSCAN30 (11745921_a_at) / RFU CMKLR1 (11741424_a_at) / Fold change /veh CMKLR1 (11741424_a_at) / RFU LOC101060620 /// MAPK8IP1 (11723275_at) / Fold change /veh LOC101060620 /// MAPK8IP1 (11723275_at) / RFU SPTSSB (11747773_x_at) / Fold change /veh SPTSSB (11747773_x_at) / RFU PRSS12 (11739890_at) / Fold change /veh PRSS12 (11739890_at) / RFU BIN1 (11741810_x_at) / Fold change /veh BIN1 (11741810_x_at) / RFU WNT11 (11732464_a_at) / Fold change /veh WNT11 (11732464_a_at) / RFU C10orf10 (11716521_a_at) / Fold change /veh C10orf10 (11716521_a_at) / RFU C5orf56 (11738089_at) / Fold change /veh C5orf56 (11738089_at) / RFU CYB561 (11721691_x_at) / Fold change /veh CYB561 (11721691_x_at) / RFU ANKRD19P (11752326_a_at) / Fold change /veh ANKRD19P (11752326_a_at) / RFU OR2T12 /// OR2T33 /// OR2T8 (11738714_s_at) / Fold change /veh OR2T12 /// OR2T33 /// OR2T8 (11738714_s_at) / RFU VCAN (11748164_a_at) / Fold change /veh VCAN (11748164_a_at) / RFU JSRP1 (11732532_at) / Fold change /veh JSRP1 (11732532_at) / RFU KRTAP10-11 (11738290_x_at) / Fold change /veh KRTAP10-11 (11738290_x_at) / RFU MYO3A (11730013_a_at) / Fold change /veh MYO3A (11730013_a_at) / RFU EBF3 (11725865_a_at) / Fold change /veh EBF3 (11725865_a_at) / RFU CAMK2N1 (11719241_x_at) / Fold change /veh CAMK2N1 (11719241_x_at) / RFU C5orf56 (11738088_a_at) / Fold change /veh C5orf56 (11738088_a_at) / RFU OLFML3 (11715873_a_at) / Fold change /veh OLFML3 (11715873_a_at) / RFU LOC100653217 /// NTM (11731650_a_at) / Fold change /veh LOC100653217 /// NTM (11731650_a_at) / RFU MAPK11 (11762145_a_at) / Fold change /veh MAPK11 (11762145_a_at) / RFU FIZ1 (11724087_x_at) / Fold change /veh FIZ1 (11724087_x_at) / RFU OASL (11726364_x_at) / Fold change /veh OASL (11726364_x_at) / RFU SOX15 (11748057_x_at) / Fold change /veh SOX15 (11748057_x_at) / RFU CD79A (11719716_a_at) / Fold change /veh CD79A (11719716_a_at) / RFU HIST1H1D (11736915_at) / Fold change /veh HIST1H1D (11736915_at) / RFU CASKIN2 (11723855_a_at) / Fold change /veh CASKIN2 (11723855_a_at) / RFU LOC730098 (11760151_x_at) / Fold change /veh LOC730098 (11760151_x_at) / RFU OR4N2 (11742367_at) / Fold change /veh OR4N2 (11742367_at) / RFU PRRT2 (11749266_a_at) / Fold change /veh PRRT2 (11749266_a_at) / RFU SNX32 (11753110_a_at) / Fold change /veh SNX32 (11753110_a_at) / RFU CDHR5 (11726645_a_at) / Fold change /veh CDHR5 (11726645_a_at) / RFU RCAN1 (11760418_a_at) / Fold change /veh RCAN1 (11760418_a_at) / RFU FAM167A (11723789_a_at) / Fold change /veh FAM167A (11723789_a_at) / RFU FAM26E (11764081_at) / Fold change /veh FAM26E (11764081_at) / RFU ISYNA1 (11749810_s_at) / Fold change /veh ISYNA1 (11749810_s_at) / RFU ACY1 (11761880_at) / Fold change /veh ACY1 (11761880_at) / RFU 11764098_at / Fold change /veh 11764098_at / RFU SAMD14 (11745864_x_at) / Fold change /veh SAMD14 (11745864_x_at) / RFU NPB (11741838_a_at) / Fold change /veh NPB (11741838_a_at) / RFU TMPRSS6 (11731388_a_at) / Fold change /veh TMPRSS6 (11731388_a_at) / RFU KRTAP10-2 (11738614_at) / Fold change /veh KRTAP10-2 (11738614_at) / RFU ARHGAP8 /// PRR5-ARHGAP8 (11727945_x_at) / Fold change /veh ARHGAP8 /// PRR5-ARHGAP8 (11727945_x_at) / RFU KRTAP5-7 /// NADSYN1 (11734609_at) / Fold change /veh KRTAP5-7 /// NADSYN1 (11734609_at) / RFU RASL12 (11751679_a_at) / Fold change /veh RASL12 (11751679_a_at) / RFU CDKN2B (11736163_a_at) / Fold change /veh CDKN2B (11736163_a_at) / RFU PRF1 (11729649_at) / Fold change /veh PRF1 (11729649_at) / RFU, ZNF638 /// ZNF638-IT1 / Fold change vs veh, ZNF638 /// ZNF638-IT1 / RFU, PANK3 / Fold change vs veh, PANK3 / RFU, SH3YL1 / Fold change vs veh, SH3YL1 / RFU, ZEB2 / Fold change vs veh, ZEB2 / RFU, NRIP1 / Fold change vs veh, NRIP1 / RFU, PTTG1IP / Fold change vs veh, PTTG1IP / RFU, CAPN2 / Fold change vs veh, CAPN2 / RFU, MED14 / Fold change vs veh, MED14 / RFU, SNORA58 / Fold change vs veh, SNORA58 / RFU, C1orf63 / Fold change vs veh, C1orf63 / RFU, LRRFIP1 / Fold change vs veh, LRRFIP1 / RFU, NDUFAF7 / Fold change vs veh, NDUFAF7 / RFU, SLC12A2 / Fold change vs veh, SLC12A2 / RFU, IBTK / Fold change vs veh, IBTK / RFU, ESF1 / Fold change vs veh, ESF1 / Fold change vs veh, TMEM50B / RFU, TAOK1 / Fold change vs veh, TAOK1 / RFU, ACBD3 / Fold change vs veh, ACBD3 / RFU, TMA16 / Fold change vs veh, TMA16 / RFU, RWDD3 / Fold change vs veh, RWDD3 / RFU, BCAT1 / Fold change vs veh, BCAT1 / RFU, EDEM3 / Fold change vs veh, EDEM3 / RFU, TMEM33 / Fold change vs veh, TMEM33 / RFU, WDR75 / Fold change vs veh, WDR75 / RFU, AHCTF1 / Fold change vs veh, AHCTF1 / RFU, TFRC / Fold change vs veh, TFRC / RFU, ZDHHC17 / Fold change vs veh, ZDHHC17 / RFU, NOM1 / Fold change vs veh, NOM1 / RFU, ARL8B / Fold change vs veh, ARL8B / RFU, ZBTB11 / Fold change vs veh, ZBTB11 / RFU, TAMM41 / Fold change vs veh, TAMM41 / RFU, KIAA1704 /// LOC100996395 / Fold change vs veh, KIAA1704 /// LOC100996395 / RFU, ING1 / Fold change vs veh, ING1 / RFU, TRMT61B / Fold change vs veh, TRMT61B / RFU, FUBP3 / Fold change vs veh, FUBP3 / RFU, TP53 / Fold change vs veh, TP53 / RFU, TNKS2 / Fold change vs veh, TNKS2 / RFU, ZFP14 / Fold change vs veh, ZFP14 / RFU, ACTR2 / Fold change vs veh, ACTR2 / RFU, PPP3R1 / Fold change vs veh, PPP3R1 / RFU, PIK3R1 / Fold change vs veh, PIK3R1 / RFU, HNRNPA1 / Fold change vs veh, HNRNPA1 / RFU, RNF170 / Fold change vs veh, RNF170 / RFU, ZNF28 / Fold change vs veh, ZNF28 / RFU, RNGTT / Fold change vs veh, RNGTT / RFU, OGT / Fold change vs veh, OGT / RFU, BRD1 / Fold change vs veh, BRD1 / RFU, MARS / Fold change vs veh, MARS / RFU, ZNF655 / Fold change vs veh, ZNF655 / RFU, FAHD1 / Fold change vs veh, FAHD1 / RFU, BDP1 / Fold change vs veh, BDP1 / RFU, LRRCC1 / Fold change vs veh, LRRCC1 / RFU, ARID1A / Fold change vs veh, ARID1A / RFU, ZNF146 / Fold change vs veh, ZNF146 / RFU, ZNF330 / Fold change vs veh, ZNF330 / RFU, GPN3 / Fold change vs veh, GPN3 / RFU, C9orf123 / Fold change vs veh, C9orf123 / RFU, N4BP2L2 / Fold change vs veh, N4BP2L2 / RFU, ARFIP1 / Fold change vs veh, ARFIP1 / RFU, FAM179B / Fold change vs veh, FAM179B / RFU, BCL10 / Fold change vs veh, BCL10 / RFU, UHRF1BP1L / Fold change vs veh, UHRF1BP1L / RFU, BET1 / Fold change vs veh, BET1 / RFU, CNOT2 / Fold change vs veh, CNOT2 / RFU, ZNF268 / Fold change vs veh, ZNF268 / Fold change vs veh, ZNF507 / RFU, DGCR2 / Fold change vs veh, DGCR2 / RFU, WDSUB1 / Fold change vs veh, WDSUB1 / Fold change vs veh, HSP90B1 /// MIR3652 / RFU, ADSS / Fold change vs veh, ADSS / RFU, GK / Fold change vs veh, GK / RFU, ZNF148 / Fold change vs veh, ZNF148 / RFU, TAF9 / Fold change vs veh, TAF9 / RFU, SLC1A5 / Fold change vs veh, SLC1A5 / RFU, SLMO2 / Fold change vs veh, SLMO2 / RFU, ABCC4 / Fold change vs veh, ABCC4 / RFU, LOC101060439 /// RAP1B / Fold change vs veh, LOC101060439 /// RAP1B / RFU, RFX7 / Fold change vs veh, RFX7 / RFU, GTPBP10 / Fold change vs veh, GTPBP10 / RFU, CNEP1R1 / Fold change vs veh, CNEP1R1 / RFU, BIVM-ERCC5 /// ERCC5 / Fold change vs veh, BIVM-ERCC5 /// ERCC5 / RFU, ILF3 / Fold change vs veh, ILF3 / RFU 11762660_at / Fold change /veh 11762660_at / RFU VCAN (11757783_s_at) / Fold change /veh VCAN (11757783_s_at) / RFU DDX43 (11728927_at) / Fold change /veh DDX43 (11728927_at) / RFU KRT8 (11758188_x_at) / Fold change /veh KRT8 (11758188_x_at) / RFU NKD1 (11759106_at) / Fold change /veh NKD1 (11759106_at) / RFU SRD5A1 (11742802_a_at) / Fold change /veh SRD5A1 (11742802_a_at) / RFU TPSAB1 /// TPSB2 (11721975_s_at) / Fold change /veh TPSAB1 /// TPSB2 (11721975_s_at) / RFU GSTM3 (11746129_a_at) / Fold change /veh GSTM3 (11746129_a_at) / RFU IL23R (11737362_x_at) / Fold change /veh IL23R (11737362_x_at) / RFU TMEM51 (11727254_a_at) / Fold change /veh TMEM51 (11727254_a_at) / RFU PIWIL2 (11732686_x_at) / Fold change /veh PIWIL2 (11732686_x_at) / RFU ORM1 (11744905_x_at) / Fold change /veh ORM1 (11744905_x_at) / RFU CCDC152 (11743942_at) / Fold change /veh CCDC152 (11743942_at) / RFU ECM1 (11717891_a_at) / Fold change /veh ECM1 (11717891_a_at) / RFU IL23R (11748794_a_at) / Fold change /veh IL23R (11748794_a_at) / RFU TNFAIP8L3 (11732012_x_at) / Fold change /veh TNFAIP8L3 (11732012_x_at) / RFU MBOAT4 (11741988_at) / Fold change /veh MBOAT4 (11741988_at) / RFU 11764193_at / Fold change /veh 11764193_at / RFU TMEM53 (11763286_at) / Fold change /veh TMEM53 (11763286_at) / RFU MAGEB2 (11727129_at) / Fold change /veh MAGEB2 (11727129_at) / RFU TMEM200A (11744735_a_at) / Fold change /veh TMEM200A (11744735_a_at) / RFU CCDC152 (11751479_a_at) / Fold change /veh CCDC152 (11751479_a_at) / RFU FAM211A (11726209_a_at) / Fold change /veh FAM211A (11726209_a_at) / RFU RGS16 (11746705_a_at) / Fold change /veh RGS16 (11746705_a_at) / RFU VCAN (11755009_s_at) / Fold change /veh VCAN (11755009_s_at) / RFU RHOB (11743442_s_at) / Fold change /veh RHOB (11743442_s_at) / RFU RGS16 (11720943_a_at) / Fold change /veh RGS16 (11720943_a_at) / RFU RGS16 (11720944_at) / Fold change /veh RGS16 (11720944_at) / RFU, VPS4B / Fold change vs veh, VPS4B / RFU, CREB1 / Fold change vs veh, CREB1 / RFU, DNAJC13 / Fold change vs veh, DNAJC13 / RFU, GNAQ / Fold change vs veh, GNAQ / RFU, CDK5R1 / Fold change vs veh, CDK5R1 / RFU, ZRANB3 / Fold change vs veh, ZRANB3 / RFU, CUL4A / Fold change vs veh, CUL4A / RFU, CCNY / Fold change vs veh, CCNY / RFU, UFL1 / Fold change vs veh, UFL1 / RFU, COG3 / Fold change vs veh, COG3 / RFU, DIAPH2 / Fold change vs veh, DIAPH2 / RFU, SKA2 / Fold change vs veh, SKA2 / RFU, AFF3 / Fold change vs veh, AFF3 / RFU, LMF1 / Fold change vs veh, LMF1 / RFU, IPO11 / Fold change vs veh, IPO11 / RFU, DFFB / Fold change vs veh, DFFB / RFU, FOXP1 / Fold change vs veh, FOXP1 / RFU, CARD8 / Fold change vs veh, CARD8 / RFU, STRN3 / Fold change vs veh, STRN3 / RFU, ADK / Fold change vs veh, ADK / RFU, RASSF2 / Fold change vs veh, RASSF2 / RFU, WIPF1 / Fold change vs veh, WIPF1 / RFU, LARP1B / Fold change vs veh, LARP1B / RFU, RASA1 / Fold change vs veh, RASA1 / RFU, RB1 / Fold change vs veh, RB1 / RFU, PPFIA1 / Fold change vs veh, PPFIA1 / RFU, MAT2A / Fold change vs veh, MAT2A / RFU, CCT5 / Fold change vs veh, CCT5 / RFU, WDR92 / Fold change vs veh, WDR92 / RFU, CUX1 / Fold change vs veh, CUX1 / RFU, TTC7A / Fold change vs veh, TTC7A / RFU, TMEM135 / Fold change vs veh, TMEM135 / RFU, DEPTOR / Fold change vs veh, DEPTOR / RFU, CPM / Fold change vs veh, CPM / RFU, DNAJB6 / Fold change vs veh, DNAJB6 / RFU, CACNA2D3 / Fold change vs veh, CACNA2D3 / RFU, DTX4 / Fold change vs veh, DTX4 / RFU, TFCP2 / Fold change vs veh, TFCP2 / RFU, GMCL1 /// GMCL1P1 / Fold change vs veh, GMCL1 /// GMCL1P1 / RFU, AEBP2 / Fold change vs veh, AEBP2 / RFU, SNHG1 /// SNORD22 /// SNORD25 /// SNORD26 /// SNORD27 /// SNORD28 /// SNORD29 /// SNORD31 / Fold change vs veh, SNHG1 /// SNORD22 /// SNORD25 /// SNORD26 /// SNORD27 /// SNORD28 /// SNORD29 /// SNORD31 / Fold change (Aza/veh), C12orf56 (ProbeSet 11735607_a_at) / Fold change (ACY-1035/veh), C12orf56 (ProbeSet 11735607_a_at) / Fold change (Aza/veh), FGFR1OP (ProbeSet 11751329_s_at) / Fold change (ACY-1035/veh), FGFR1OP (ProbeSet 11751329_s_at) / Fold change (Aza/veh), VPS36 (ProbeSet 11739960_a_at) / Fold change (ACY-1035/veh), VPS36 (ProbeSet 11739960_a_at) / RFU SYPL1 (11715823_x_at) / Fold change /veh SYPL1 (11715823_x_at) / RFU IGFBP7 (11715501_s_at) / Fold change /veh IGFBP7 (11715501_s_at) / RFU REEP3 (11722064_at) / Fold change /veh REEP3 (11722064_at) / RFU IGLL1 (11728026_x_at) / Fold change /veh IGLL1 (11728026_x_at): dose or concentration left out as unconfirmed
Settings: MV-4-11 cells, 48 hours

Nc1ncn([C@@H]2O[C@H](CO)[C@@H](O)[C@H]2O)c(=O)n1 [azacitidine]
Fold change /veh PLEKHG5 (11743358_a_at): 1.07
